pIC50: −log10 of the molar value.
Tests used:
[1] = target: T1, IP6K1^wt (Homo sapiens, UniProt Q92551); assay: High-throughput screen, reverse kinase reaction (5PP-InsP5 + ADP), Kinase-Glo luminescence; type: biochemical; details: dose-dependent reconfirmation
T1 construct: made in house; host or cells: E. coli Arctic Express

[2] = tested on: HEK293; assay: Cytotoxicity, cell survival after 72 hr incubation; type: cell-based; details: HEK293, 10 µM
Procedure: (§1) Supplementary file elife-88982-supp2.xlsx: Supplementary file 2. Cytotoxicity of selected hits indicated by cell survival after 72 hr incubation at 10 µM concentration. All compounds were measured in independent triplicates and errors represent standard deviation. Redox activity of selected compounds measured via a photometric surrogate assay. Reactions contained 50 mM HEPES pH 7.5, 50 mM NaCl, 200 mM DTT, and 20 µM resazurin, and were incubated for 1 hr at 37°C.

[3] = tested on: HepG2; assay: Cytotoxicity, cell survival after 72 hr incubation; type: cell-based; details: HepG2, 10 µM
Procedure: as §1

[4] = target: T2, MBP-HsIP6K1^L210V (Homo sapiens, UniProt Q92551, L210V); assay: Hydrogen deuterium exchange mass spectrometry (HDX-MS), apo vs inhibitor-bound; type: binding; details: IP6K1^L210V apo vs bound to FMP-201300
T2 construct: made in house; host or cells: E. coli Arctic Express
Procedure: (§2) Prior to initiation of deuterium exchange reactions, enzymes were incubated with inhibitor or DMSO blank for 15 min at RT (final concentration: 3 µM enzyme, 50 µM inhibitor, in a buffer consisting of 20 mM HEPES 7.4, 50 mM NaCl, 1% DMSO). From this mixture, 5 µl was taken per sample and 45 µl of deuterated buffer was added to initiate deuterium exchange (final concentrations: 300 nM enzyme, 5 µM inhibitor; final buffer concentration: 20 mM HEPES 7.4, 50 mM NaCl, 85.63% deuterium, 0.1% DMSO). Reactions were carried out in triplicate at 3 (3, 30, and 300 s) or four different time points (0.3, 3, 30, and 300 s) and were quenched by the addition of 20 µl of ice-cold quench buffer (final concentration: 0.57 M GuaHCL, 0.86% formic acid). Samples were snap-frozen in liquid nitrogen and then stored at −80°C until mass analysis.
(§3) Samples were rapidly thawed and injected onto an ultra-performance liquid chromatography (UPLC) at 2°C. […] Peptides were identified using data-dependent acquisition methods following tandem MS/MS experiments. MS/MS datasets were analyzed using MaxQuant against a database of purified proteins and known contaminants with an false discovery rate (FDR) cut-off of 1%.
(§4) Deuterium incorporation of peptides was automatically calculated using HDExaminer Software (Sierra Analytics). […]

[5] = target: T3, MBP-HsIP6K1^wt (Homo sapiens, UniProt Q92551); assay: as above; type: binding; details: IP6K1^wt apo vs inhibitor-bound
T3 construct: made in house; host or cells: E. coli Arctic Express
Procedure: as §2, §3, §4

T3 sequence (Q92551 whole entry): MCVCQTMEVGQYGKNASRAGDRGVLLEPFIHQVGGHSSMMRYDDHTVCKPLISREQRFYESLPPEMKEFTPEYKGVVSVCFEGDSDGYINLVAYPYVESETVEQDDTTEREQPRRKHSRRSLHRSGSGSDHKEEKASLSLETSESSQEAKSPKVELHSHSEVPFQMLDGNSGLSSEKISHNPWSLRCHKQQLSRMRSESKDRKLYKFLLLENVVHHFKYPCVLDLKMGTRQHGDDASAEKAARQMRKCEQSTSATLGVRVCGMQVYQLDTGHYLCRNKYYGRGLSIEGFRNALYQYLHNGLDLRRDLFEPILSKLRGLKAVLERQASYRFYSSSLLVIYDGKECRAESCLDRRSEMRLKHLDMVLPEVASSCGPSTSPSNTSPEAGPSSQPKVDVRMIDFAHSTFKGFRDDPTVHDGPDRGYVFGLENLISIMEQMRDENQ
T1 sequence (Q92551 whole entry): as above
T2 sequence (Q92551 whole entry L210V): as the sequence (Q92551 whole entry) above, with L210V counted along it

SMILES: O=C(O)c1ccc2c(c1)C(=O)N(c1ccc(-c3nc4ccc(N5C(=O)c6ccc(C(=O)O)cc6C5=O)cc4[nH]3)cc1)C2=O [FMP-201300]
- pIC50 [1]: 4.77
- cytotoxic [2]: nor cytotoxic
- Cell number (%) ([2]; 72 hr incubation): 100.1 ± 4.1%
- cytotoxic [3]: nor cytotoxic
- Cell number (%) ([3]; 72 hr incubation): 99.1 ± 2.8%
- change in deuterium exchange rates upon inhibitor binding [4]: Major decreases in exchange rates were observed in proximity to the ATP-binding site
- change in deuterium incorporation upon inhibitor binding [5]: no significant changes in deuterium incorporation were observed
